Source: ChEMBL document CHEMBL1138453, “Synthesis and SAR of 1,2,3,4-tetrahydroisoquinolin-1-ones as novel G-protein-coupled receptor 40 (GPR40) antagonists” (Bioorg Med Chem Lett, 2009)

Tests used:
[1] = target: Free fatty acid receptor 1 (Homo sapiens, UniProt O14842); test: Antagonist activity at human GPR40 expressed HEK293 cells assessed as effect on intracellular calcium concentration by FLIPR assay; type: functional, cell-based
[2] = system: Rattus norvegicus; test: Clearance in iv dosed Sprague-Dawley rat; type: ADME, organism-based; settings: in vivo
[3] = system: Liver microsomes; test: Metabolic stability in rat liver microsomes assessed as clearance; type: ADME, Microsome
[4] = system: Rattus norvegicus; test: Clearance in iv dosed bile duct cannulated rat; type: ADME, organism-based; settings: in vivo
[5] = Drug level in bile of iv dosed bile duct cannulated rat; type: ADME, organism-based; settings: read-out: Drug uptake
[6] = system: Liver microsomes; test: (§1) Metabolic stability in human liver microsomes assessed as clearance; type: ADME, Microsome; settings: microsomes
[7] = Metabolic stability in dog liver microsomes assessed as clearance; type: ADME, Canis lupus familiaris, Microsome
[8] = system: Canis familiaris; test: Clearance in iv dosed dog; type: ADME, organism-based, Canis lupus familiaris; settings: in vivo
[9] = Permeability from apical to basolateral side of the human Caco-2 membrane; type: ADME, cell-based; settings: read-out: permeability
[10] = Permeability from basolateral to apical side of the human Caco-2 membrane; type: ADME, cell-based; settings: read-out: permeability
[11] = Volume of distribution in iv dosed Sprague-Dawley rat; type: ADME, organism-based; settings: in vivo
[12] = Half life in iv dosed Sprague-Dawley rat; type: ADME, organism-based; settings: in vivo
[13] = as §1; type: ADME, Microsome; settings: liver microsomes

Chain of Free fatty acid receptor 1 (O14842 whole entry): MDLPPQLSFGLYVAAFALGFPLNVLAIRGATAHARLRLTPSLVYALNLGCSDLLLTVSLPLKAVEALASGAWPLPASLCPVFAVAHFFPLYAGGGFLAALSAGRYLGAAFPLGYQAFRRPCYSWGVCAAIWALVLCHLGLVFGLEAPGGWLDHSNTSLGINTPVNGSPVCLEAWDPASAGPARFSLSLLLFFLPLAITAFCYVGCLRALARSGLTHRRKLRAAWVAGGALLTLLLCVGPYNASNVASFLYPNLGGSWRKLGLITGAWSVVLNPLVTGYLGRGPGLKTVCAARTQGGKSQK

SMILES	IC50 [1] [nM]	clearance [3] [µL/min/mg]	clearance [6] [µL/min/mg]	further results
CCCN1C(=O)c2ccccc2[C@@H](C(=O)O)[C@@H]1c1cc2ccccc2o1	119	18		clearance [2]: 3 mL/min/kg
CC[C@H](C)CN1C(=O)c2ccccc2[C@@H](C(=O)O)[C@@H]1c1ccc(Cl)c(Cl)c1	13	< 14		
CCC(CC)CN1C(=O)c2ccccc2[C@@H](C(=O)O)[C@@H]1c1ccc(Cl)c(Cl)c1	10	27		
CCCN1C(=O)c2ccccc2[C@@H](C(=O)O)[C@@H]1c1ccc(Cl)c(Cl)c1	89	< 14		
CCCN1C(=O)c2ccccc2[C@@H](C(=O)O)[C@@H]1c1cccc(Cl)c1	228	< 14		clearance [2]: 2.96 mL/min/kg
CCCN1C(=O)c2ccccc2[C@@H](C(=O)O)[C@@H]1c1cnc(O[C@H]2CC[C@@H](C)CC2)nc1				clearance [4]: 136 mL/min/kg; dose excreted [5]: 69.9%
CCCN1C(=O)c2ccccc2[C@@H](C(=O)O)[C@@H]1c1ccc(Oc2cc(Cl)cc(Cl)c2)cc1				microsomal CLint [7]: 2.99 µL/min/mg; clearance [4]: 32.7 mL/min/kg; clearance [8]: 7.4 mL/min/kg; dose excreted [5]: 64.6%
CCC(CC)CN1C(=O)c2ccccc2[C@@H](C(=O)O)[C@@H]1c1nc2ccccc2s1	10	< 18		
CC[C@H](C)CN1C(=O)c2ccccc2[C@@H](C(=O)O)[C@@H]1c1cc2ccccc2o1	20	< 14.1		Papp A→B [9]: 12 ×10⁻⁶ cm/s; Papp B→A [10]: 18.7 ×10⁻⁶ cm/s; Vd [11]: 1.1 L/kg; clearance [2]: 4.3 mL/min/kg; half-life [12]: 5.4 h; microsomal CLint [13]: < 8 µL/min/mg

More lines, main results first:

IC50 [1] [nM]	clearance [3] [µL/min/mg]	clearance [6] [µL/min/mg]	SMILES	further results
10	274	< 12	CCCN1C(=O)c2ccccc2[C@@H](C(=O)O)[C@@H]1c1ccc(O[C@H]2CC[C@@H](C)CC2)cc1	clearance [4]: 84.5 mL/min/kg; dose excreted [5]: 22.9%
12	97	< 9	CCN1C(=O)c2ccccc2[C@@H](C(=O)O)[C@@H]1c1ccc(Oc2ccccc2)cc1	clearance [4]: 111 mL/min/kg; dose excreted [5]: 13.9%
2	46	21	CCCN1C(=O)c2ccccc2[C@@H](C(=O)O)[C@@H]1c1ccc(Oc2cc(C)cc(C)c2)cc1	
3	< 14	< 8	CCCN1C(=O)c2ccccc2[C@@H](C(=O)O)[C@@H]1c1ccc(Oc2ccc(C)c(C)c2)cc1	
156	27		CN1C(=O)c2ccccc2[C@@H](C(=O)O)[C@@H]1c1ccc(Oc2ccccc2)cc1	
2100	< 14	< 8	CCCN1C(=O)c2ccccc2[C@@H](C(=O)O)[C@@H]1c1ccc(OC)cc1	
96	< 16	< 8	CCCN1C(=O)c2ccccc2[C@@H](C(=O)O)[C@@H]1c1ccc(OCc2ccccc2)cc1	clearance [2]: 82.8 mL/min/kg
29	< 14	< 8	CCCN1C(=O)c2ccccc2[C@@H](C(=O)O)[C@@H]1c1ccc(Oc2ccc(C(F)(F)F)cn2)cc1	
4	120		O=C(O)[C@@H]1c2ccccc2C(=O)N(CC2CC2)[C@H]1c1ccc(Oc2ccccc2)cc1	
